For 20 compounds, EC50 results are on record in ChEMBL document CHEMBL1128526, “Conformational effects on retinoid receptor selectivity. 2. Effects of retinoid bridging group on retinoid X receptor activity and selectivity” (J Med Chem, 1995).

Several values for one entry are separate records, joined by “and”; a condition that tells them apart may be missing. Equal values may be shown once.

As usually defined, the EC50 is the concentration at which the effect is half-maximal. A high value points to a need for much substance.

Assay [1] addresses T1, Retinoic acid receptor RXR-beta (Homo sapiens, UniProt P28702).
T1 sequence (P28702 whole entry): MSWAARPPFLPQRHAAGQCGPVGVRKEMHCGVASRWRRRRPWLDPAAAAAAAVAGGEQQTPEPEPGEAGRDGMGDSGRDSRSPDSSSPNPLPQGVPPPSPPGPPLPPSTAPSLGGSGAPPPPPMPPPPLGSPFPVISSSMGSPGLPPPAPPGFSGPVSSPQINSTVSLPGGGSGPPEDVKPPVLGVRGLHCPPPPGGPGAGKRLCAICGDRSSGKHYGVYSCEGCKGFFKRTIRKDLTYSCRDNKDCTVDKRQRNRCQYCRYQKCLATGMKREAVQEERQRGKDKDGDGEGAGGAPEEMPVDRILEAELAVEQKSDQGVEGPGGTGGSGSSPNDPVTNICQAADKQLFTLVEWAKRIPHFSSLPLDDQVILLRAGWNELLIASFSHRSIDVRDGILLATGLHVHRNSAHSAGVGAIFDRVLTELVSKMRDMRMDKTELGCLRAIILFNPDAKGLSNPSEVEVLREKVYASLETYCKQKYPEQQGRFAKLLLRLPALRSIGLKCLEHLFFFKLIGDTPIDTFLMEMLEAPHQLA
The assay is described as follows: Effective concentrations against Retinoid X receptor RXR beta.

In assay [2] the target is T2, Retinoic acid receptor RXR-gamma (Homo sapiens, UniProt P48443).
T2 sequence (P48443 whole entry): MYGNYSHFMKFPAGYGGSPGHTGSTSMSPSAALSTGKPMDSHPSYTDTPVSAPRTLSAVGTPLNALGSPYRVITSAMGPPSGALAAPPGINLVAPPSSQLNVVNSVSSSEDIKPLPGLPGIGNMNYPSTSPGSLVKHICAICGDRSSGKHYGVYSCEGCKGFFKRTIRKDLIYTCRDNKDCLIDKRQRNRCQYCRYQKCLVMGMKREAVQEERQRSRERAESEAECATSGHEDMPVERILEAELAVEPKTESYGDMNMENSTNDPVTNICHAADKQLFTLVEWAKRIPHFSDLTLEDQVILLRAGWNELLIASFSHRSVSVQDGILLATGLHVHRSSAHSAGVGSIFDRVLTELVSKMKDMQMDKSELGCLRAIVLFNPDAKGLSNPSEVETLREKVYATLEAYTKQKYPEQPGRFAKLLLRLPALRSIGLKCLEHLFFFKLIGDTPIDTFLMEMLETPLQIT
Description: Effective concentrations against Retinoic acid receptor RXR-gamma.

The target of assay [3] is T3, Retinoic acid receptor RXR-alpha (Homo sapiens, UniProt P19793).
T3 sequence (P19793 whole entry): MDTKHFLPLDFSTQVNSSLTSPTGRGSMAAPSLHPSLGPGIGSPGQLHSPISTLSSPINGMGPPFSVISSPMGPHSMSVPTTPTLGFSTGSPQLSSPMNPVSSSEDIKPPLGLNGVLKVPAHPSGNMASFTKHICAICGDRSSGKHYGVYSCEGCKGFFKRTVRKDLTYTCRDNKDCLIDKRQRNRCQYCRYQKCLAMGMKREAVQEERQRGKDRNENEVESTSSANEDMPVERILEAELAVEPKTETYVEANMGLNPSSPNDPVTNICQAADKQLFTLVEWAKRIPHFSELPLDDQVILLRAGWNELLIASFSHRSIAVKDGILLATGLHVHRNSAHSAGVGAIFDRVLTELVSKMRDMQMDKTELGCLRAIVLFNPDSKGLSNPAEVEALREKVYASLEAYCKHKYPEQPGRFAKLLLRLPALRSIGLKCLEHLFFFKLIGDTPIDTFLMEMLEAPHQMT
The assay is described as follows: Effective concentration against Retinoic acid receptor RXR-alpha.

Assay [4] addresses T1, Retinoic acid receptor RXR-beta. The assay is described as follows: Effective concentrations against Retinoic acid receptor RXR-beta.

As for `CC(/C=C/C1(c2cc3c(cc2C)C(C)(C)CCC3(C)C)OCCO1)=C\C(=O)O`, the values for the EC50 in assay [1], in assay [2] and in assay [3] were 47 nM, 2300 nM and 21 nM, respectively.
With `C=C(c1ccc(C(=O)O)s1)c1cc2c(cc1C)C(C)(C)CCC2(C)C`, the EC50 in assay [2] turned out to be 520 nM; in assay [4], 33 nM; in assay [3] it was 330 nM.
As to `CC1(C)CCC(C)(C)c2cc(C3(c4ccc(C(=O)O)cc4)OCCO3)ccc21`, in assay [3], a half-maximal response (EC50) required 34 nM. This lies in the double-digit nanomolar range.
In the case of `CC1(C)CCC(C)(C)c2cc(C3(c4ccc(C(=O)O)cc4)SCCCS3)ccc21`, the EC50 in assay [3] was 630 nM and 540 nM.
As for `CC1(C)CCC(C)(C)c2cc(C3(c4ccc(C(=O)O)cc4)OCCCO3)ccc21`, in assay [3], the EC50 is 750 nM and 1200 nM.
Same read-out and setting: as for `CC1(C)CCC(C)(C)c2cc(C3(c4ccc(C(=O)O)cc4)OCCS3)ccc21` (configuration not stated), the figure is 74 nM; as for `CC1(C)CCC(C)(C)c2cc(C(C)(C)c3ccc(C(=O)O)cc3)ccc21`, 3100 nM.
With `CC1(C)CCC(C)(C)c2cc(Cc3ccc(C(=O)O)cc3)ccc21`, the EC50 in assay [2] is 2000 nM; in assay [4], 2700 nM; in assay [3] it was 2500 nM.
On the same counts, the results for `Cc1cc2c(cc1C(=O)c1ccc(C(=O)O)s1)C(C)(C)CCC2(C)C` are 300 nM, 1000 nM and 2200 nM.
Regarding `C/C=C(/c1ccc(C(=O)O)cc1)c1ccc2c(c1)C(C)(C)CCC2(C)C`, the EC50 in assay [2] was 370 nM; in assay [4] it was 160 nM; in assay [3] it was 55 nM and 470 nM.
The compound `CC(C)=C(/C=C/C(C)=C/C(=O)O)c1cc2c(cc1C)C(C)(C)CCC2(C)C` showed an EC50 in assay [3] of 200 nM.
On the same count and under the same terms, as for `CC1(C)CCC(C)(C)c2cc(C(O)c3ccc(C(=O)O)cc3)ccc21` (configuration not stated), the figure is 2900 nM.
Same read-out and setting: the figure for `CC(c1ccc(C(=O)O)cc1)c1ccc2c(c1)C(C)(C)CCC2(C)C` (configuration not stated) is 300 nM.
Take `CC1(C)CCC(C)(C)c2cc(Oc3ccc(C(=O)O)cc3)ccc21`: the EC50 in assay [2] worked out at 530 nM; in assay [4] it was 1900 nM; in assay [3], 2500 nM.
Turning to `CC(C)=C(c1ccc(C(=O)O)cc1)c1ccc2c(c1)C(C)(C)CCC2(C)C`, in assay [3], the EC50 is 86 nM. This lies in the double-digit nanomolar range.
On the same count and under the same terms, as for `CC1(C)CCC(C)(C)c2cc(C3(c4ccc(C(=O)O)cc4)SCCS3)ccc21`, the figure is 170 nM; as for `C/C=C(\c1ccc(C(=O)O)cc1)c1ccc2c(c1)C(C)(C)CCC2(C)C`, 2500 nM; as for `CC1(C)CCC(C)(C)c2cc(C3(c4ccc(C(=O)O)cc4)CC3)ccc21`, 55 nM.
Turning to `CC(C)=C(/C=C/C(C)=C/C(=O)O)c1ccc2c(c1)C(C)(C)CCC2(C)C`, a half-maximal effect in assay [3] (EC50) was put at 380 nM.
The same measure, in the same setting: as for `C=C(c1ccc(C(=O)O)cc1)c1ccc2c(c1)C(C)(C)CCC2(C)C`, the figure is 270 nM.
